Results from ChEMBL document CHEMBL1833855, “A facile synthesis of carbocycle-fused mono and bis-1,2,3-selenadiazoles and their antimicrobial and antimycobacterial studies” (2011).
Converted amounts (≈) assume the structure as drawn.

What was measured:
[1] = tested on: Mycobacterium tuberculosis; assay: Antituberculosis activity against 10^7 cfu/mL Mycobacterium tuberculosis H37Rv after 28 days; format: functional; conditions: 672 h
[2] = tested on: Escherichia coli; assay: Antibacterial activity against Escherichia coli ATCC 25922 after 18 to 24 hrs by NCCLS M7-A5 based agar dilution method; format: functional
[3] = tested on: Escherichia coli; assay: Antibacterial activity against Escherichia coli ATCC 25922 assessed as zone of inhibition at 100 ug/disc after 24 hrs by agar disc diffusion method; format: functional; conditions: ATCC 25922, 24 h, read-out: DIZ
[4] = tested on: Staphylococcus aureus; assay: Antibacterial activity against Staphylococcus aureus ATCC 11632 after 18 to 24 hrs by NCCLS M7-A5 based agar dilution method; format: functional
[5] = tested on: Staphylococcus aureus; assay: Antibacterial activity against Staphylococcus aureus ATCC 11632 assessed as zone of inhibition at 100 ug/disc after 24 hrs by agar disc diffusion method; format: functional; conditions: ATCC 11632, 24 h, read-out: DIZ
[6] = tested on: Candida albicans; assay: Antifungal activity against Candida albicans ATCC 90028 after 18 to 24 hrs by NCCLS M7-A5 based agar dilution method; format: functional
[7] = tested on: Candida albicans; assay: Antifungal activity against Candida albicans ATCC 90028 assessed as zone of inhibition at 100 ug/disc after 48 hrs by agar disc diffusion method; format: functional; conditions: ATCC 90028, 48 h, read-out: DIZ
[8] = tested on: Escherichia coli; assay: microbe, parasite or virus in culture; conditions: ATCC 25922, 24 h, read-out: DIZ
Description: Antibacterial activity against Escherichia coli ATCC 25922 assessed as zone of inhibition at 10 ug/disc after 24 hrs by agar disc diffusion method

[9] = tested on: Staphylococcus aureus; assay: microbe, parasite or virus in culture; conditions: ATCC 11632, 24 h, read-out: DIZ
Description: Antibacterial activity against Staphylococcus aureus ATCC 11632 assessed as zone of inhibition at 10 ug/disc after 24 hrs by agar disc diffusion method

[10] = tested on: Candida albicans; assay: Antifungal activity against Candida albicans ATCC 90028 assessed as zone of inhibition at 10 ug/disc after 48 hrs by agar disc diffusion method; format: functional; conditions: ATCC 90028, 48 h, read-out: DIZ

Row | SMILES | MIC [1] [µM] | MIC [2] [µg/mL] | zone of inhibition at 100 µg/disc [3] [mm] | MIC [4] [µg/mL] | zone of inhibition at 100 µg/disc [5] [mm] | MIC [6] [µg/mL] | zone of inhibition at 100 µg/disc [7] [mm] | zone of inhibition at 10 µg/disc [8] [mm] | zone of inhibition at 10 µg/disc [9] [mm] | zone of inhibition at 10 µg/disc [10] [mm]
1 | CC[C@@H](CO)NCCN[C@@H](CC)CO [ETHAMBUTOL] | 7.6 (≈ 1.55 µg/mL) | – | – | – | – | – | – | – | – | –
2 | O=C(C[C@@H](c1ccc(Cl)cc1)[C@@H]1CCCc2[se]nnc21)c1ccccc1 | 3.6 (≈ 1.55 µg/mL) | 12.5 (≈ 29.1 µM) | 18 | 12.5 (≈ 29.1 µM) | 16 | 25 (≈ 58.2 µM) | 15 | – | – | –
3 | Cc1ccc(C(=O)C[C@@H](c2ccc(Cl)cc2)[C@@H]2CCCc3[se]nnc32)cc1 | 3.5 (≈ 1.55 µg/mL) | 12.5 (≈ 28.2 µM) | 15 | 25 (≈ 56.3 µM) | 18 | 12.5 (≈ 28.2 µM) | 17 | – | – | –
4 | Cc1ccc([C@H](CC(=O)c2ccccc2)[C@@H]2CCCc3[se]nnc32)cc1 | 15.2 (≈ 6.22 µg/mL) | 25 (≈ 61.1 µM) | < 10 | 12.5 (≈ 30.5 µM) | 15 | 25 (≈ 61.1 µM) | 13 | – | – | –
5 | c1ccc(-c2nn[se]c2[C@@H](c2ccccc2)[C@@H]2CCCc3[se]nnc32)cc1 | 51.6 (≈ 25 µg/mL) | 25 (≈ 51.6 µM) | 12 | 25 (≈ 51.6 µM) | 15 | 25 (≈ 51.6 µM) | 15 | – | – | –
6 | COc1ccc(-c2nn[se]c2[C@@H](c2ccccc2)[C@@H]2CCCc3[se]nnc32)cc1 | 48.6 (≈ 25 µg/mL) | 25 (≈ 48.6 µM) | 12 | 25 (≈ 48.6 µM) | 12 | 50 (≈ 97.2 µM) | 12 | – | – | –
7 | COc1ccc(C(=O)C[C@@H](c2ccc(Cl)cc2)[C@@H]2CCCc3[se]nnc32)cc1 | – | 12.5 (≈ 27.2 µM) | 20 | 12.5 (≈ 27.2 µM) | 20 | 25 (≈ 54.4 µM) | 15 | – | – | –
8 | Cc1ccc(-c2nn[se]c2[C@@H](c2ccc(Cl)cc2)[C@@H]2CCCc3[se]nnc32)cc1 | 23.5 (≈ 12.5 µg/mL) | 25 (≈ 46.9 µM) | 15 | 25 (≈ 46.9 µM) | 15 | 12.5 (≈ 23.5 µM) | 15 | – | – | –
9 | Clc1ccc(-c2nn[se]c2[C@@H](c2ccc(Cl)cc2)[C@@H]2CCCc3[se]nnc32)cc1 | 22.5 (≈ 12.4 µg/mL) | 12.5 (≈ 22.6 µM) | 15 | 25 (≈ 45.2 µM) | 15 | 12.5 (≈ 22.6 µM) | 15 | – | – | –
10 | O=C(O)c1cn(C2CC2)c2cc(N3CCNCC3)c(F)cc2c1=O [CIPROFLOXACIN] | – | – | – | – | – | – | – | 28 | 25 | –
11 | Cc1ccc(C(=O)C[C@@H](c2ccccc2)[C@@H]2CCCc3[se]nnc32)cc1 | – | 12.5 (≈ 30.5 µM) | 17 | 25 (≈ 61.1 µM) | 18 | 25 (≈ 61.1 µM) | 12 | – | – | –
12 | Clc1ccccc1C(c1ccccc1)(c1ccccc1)n1ccnc1 [CLOTRIMAZOLE] | – | – | – | – | – | 6.25 (≈ 18.1 µM) | – | – | – | 28
13 | c1ccc([C@H](c2[se]nnc2-c2ccc3ccccc3c2)[C@@H]2CCCc3[se]nnc32)cc1 | 46.8 (≈ 25 µg/mL) | 25 (≈ 46.8 µM) | 10 | 50 (≈ 93.6 µM) | 10 | 50 (≈ 93.6 µM) | 10 | – | – | –
14 | COc1ccc([C@H](CC(=O)c2ccccc2)[C@@H]2CCCc3[se]nnc32)cc1 | – | 25 (≈ 58.8 µM) | 15 | 25 (≈ 58.8 µM) | 18 | 50 (≈ 118 µM) | 12 | – | – | –
15 | CO[C@H]1/C=C/O[C@@]2(C)Oc3c(C)c(O)c4c(O)c(c(/C=N/N5CCN(C)CC5)c(O)c4c3C2=O)NC(=O)/C(C)=C\C=C\[C@H](C)[C@H](O)[C@@H](C)[C@@H](O)[C@@H](C)[C@H](OC(C)=O)[C@@H]1C [RIFAMPIN] | 0.1 (≈ 0.0823 µg/mL) | – | – | – | – | – | – | – | – | –
16 | Clc1ccc([C@H](c2[se]nnc2-c2ccccc2)[C@@H]2CCCc3[se]nnc32)cc1 | 24.1 (≈ 12.5 µg/mL) | 50 (≈ 96.4 µM) | < 10 | 25 (≈ 48.2 µM) | 20 | 25 (≈ 48.2 µM) | 10 | – | – | –
17 | O=C(C[C@@H](c1ccc(Cl)cc1)[C@@H]1CCCc2[se]nnc21)c1ccc(Cl)cc1 | 3.3 (≈ 1.53 µg/mL) | 6.25 (≈ 13.5 µM) | 20 | 6.25 (≈ 13.5 µM) | 20 | 12.5 (≈ 26.9 µM) | 15 | – | – | –
18 | O=C(C[C@@H](c1ccccc1)[C@@H]1CCCc2[se]nnc21)c1ccccc1 | 15.8 (≈ 6.25 µg/mL) | 12.5 (≈ 31.6 µM) | 18 | 12.5 (≈ 31.6 µM) | 15 | 25 (≈ 63.2 µM) | 15 | – | – | –
19 | COc1ccc(C(=O)C[C@@H](c2ccccc2)[C@@H]2CCCc3[se]nnc32)cc1 | 29.3 (≈ 12.5 µg/mL) | 12.5 (≈ 29.4 µM) | 12 | 25 (≈ 58.8 µM) | 15 | 25 (≈ 58.8 µM) | 15 | – | – | –
20 | O=C(C[C@@H](c1ccccc1)[C@@H]1CCCc2[se]nnc21)c1ccc2ccccc2c1 | 28 (≈ 12.5 µg/mL) | 25 (≈ 56.1 µM) | 10 | 25 (≈ 56.1 µM) | 15 | 50 (≈ 112 µM) | 10 | – | – | –
21 | COc1ccc([C@H](c2[se]nnc2-c2ccccc2)[C@@H]2CCCc3[se]nnc32)cc1 | 48.6 (≈ 25 µg/mL) | 50 (≈ 97.2 µM) | 15 | 50 (≈ 97.2 µM) | 15 | 50 (≈ 97.2 µM) | < 10 | – | – | –
22 | Cc1ccc([C@H](c2[se]nnc2-c2ccccc2)[C@@H]2CCCc3[se]nnc32)cc1 | 50.2 (≈ 25 µg/mL) | 25 (≈ 50.2 µM) | 12 | 12.5 (≈ 25.1 µM) | 16 | 50 (≈ 100 µM) | 10 | – | – | –
23 | Clc1ccc(-c2nn[se]c2[C@@H](c2ccccc2)[C@@H]2CCCc3[se]nnc32)cc1 | 48.2 (≈ 25 µg/mL) | 25 (≈ 48.2 µM) | 13 | 25 (≈ 48.2 µM) | 10 | 25 (≈ 48.2 µM) | 13 | – | – | –
24 | Cc1ccc(-c2nn[se]c2[C@@H](c2ccccc2)[C@@H]2CCCc3[se]nnc32)cc1 | 50.2 (≈ 25 µg/mL) | 25 (≈ 50.2 µM) | 16 | 50 (≈ 100 µM) | < 10 | 50 (≈ 100 µM) | 10 | – | – | –
25 | NNC(=O)c1ccncc1 [ISONIAZID] | 0.4 (≈ 0.0549 µg/mL) | – | – | – | – | – | – | – | – | –
26 | O=C(C[C@@H](c1ccccc1)[C@@H]1CCCc2[se]nnc21)c1ccc(Cl)cc1 | 7.2 (≈ 3.09 µg/mL) | 25 (≈ 58.2 µM) | 10 | 12.5 (≈ 29.1 µM) | 15 | 12.5 (≈ 29.1 µM) | 15 | – | – | –
27 | COc1ccc(-c2nn[se]c2[C@@H](c2ccc(Cl)cc2)[C@@H]2CCCc3[se]nnc32)cc1 | 45.5 (≈ 25 µg/mL) | 12.5 (≈ 22.8 µM) | 18 | 25 (≈ 45.6 µM) | 18 | 25 (≈ 45.6 µM) | 15 | – | – | –
